US9623031B2, “Compositions, methods and kits for treating cancer” (priority 2011, dated 2017)
Entries after “also recorded” stand apart in the source; their conditions may differ.

Experiments:
[1] = system: BCR-ABL^+LSC (Kit^+Sca1^+Lin^−GFP^+); assay: Apoptosis of BCR-ABL+ LSCs treated ex vivo (annexin V, flow cytometry); type: cell-based, mouse
Protocol: Apoptosis. Apoptosis of LSCs was performed using annexin V as described below in Supplementary Information and Methods.
Apoptosis. The LSCs were diluted in DMEM, resuspended using a 16-gauge needle, and collected by centrifugation. 1×10^5 cells were resuspended in 200 μl of binding buffer (0.1 M HEPES with 1.4 M NaCl, 25 mM CaCl2, pH 7.4). Annexin V FITC (BD Biosciences) was incubated with cells for 15 min on ice followed by flow cytometric analysis.
The ability of CyPGs derived from arachidonic acid (2 series PGs) to induce apoptosis was tested in cultures of LSCs from FV infected mice and in the murine CML model. […] 15d-PGJ2 is known as a PPAPγ agonist. […] In FIG. 7C Δ^12-PGJ3, 15d-PGJ2 or 9,10-dihydro-15d-PGJ2 are tested for their ability to induce apoptosis in a murine CML model. […] The cells were stained with annexin V-FITC and analyzed by flow cytometry. Representative of N=4. […] Inset: Effect of rosiglitazone on the apoptosis of LSC. Rosiglitazone (0.1-2.0 μM) was incubated with LSC in the culture media for 36 h as described earlier and the cells were subjected to annexin-V staining followed by flow cytometry. […] LSC were treated ex vivo with indicated concentrations of each compound for 36 h.
(§1) Following 36 h of incubation, apoptotic cells were quantified by annexin V staining. […] In a related study to address if Δ^12-PGJ3 treatment would cause any degranulation of granulocytes, a rat basophilic cell line ([…]) was treated with 100 nM Δ^12-PGJ3 and the degranulation was followed by quantitating the release of histamine and a second marker of degranulation, hexoseaminidase.
In this experiment, 500,000 BCR-ABL+ LSCs were plated in a 24-well plate followed and were treated with 25 nM PGD2Me or 100 nM ZK118182 (both are agonists of DP) for 24 h. GFP^+ cells were analyzed by flow cytometry. These agonists were purchased from Cayman Chemicals, MI.

[2] = system: FV-LSCs transplanted into BALB/c-Stk^−/− mice
Protocol: Transplant of FV-LSCs into BALB/c-Stk^−/− mice: FV-LSCs were generated as described above. 2.5×10^5 FV-LSCs were transplanted into BALB/c-Stk^−/− mice by retro-orbital injection. Six weeks after transplant the mice were treated with CyPGs or vehicle control as indicated in the text.
Treatment of Mice with PGs: Mice with FV-induced erythroleukemia or MIGR-BCR-ABL induced CML were treated on the indicated days with CyPGs. Mice were treated with a daily intraperitoneal injection of Δ^12-PGJ3 (0.01-0.1 mg/kg), 15d-PGJ2 (0.1 mg/kg), or 9,10-dihydro-15d-PGJ2 (0.1 mg/kg) for 7 days. All three compounds were formulated with hydroxypropyl-β-cyclodextrin (30% w/v; Sigma; vehicle control).
Stk^−/− mice are resistant to Friend virus infection so the leukemia developed by the transplanted mice is result of the transplanted LSCs and not FV infection. […] LSCs sorted from the spleens of FV-infected mice were transplanted into Stk^−/− mice (on a Balb/c background). After 6 weeks such mice were treated daily for 1 week with vehicle (hydroxypropyl-β-cyclodextrin), 15d-PGJ2 (0.05 mg/kg), or 9,10-dihydro-15d-PGJ2 (0.05 mg/kg) by intraperitoneal injection. The mice were sacrificed 51 days post LSC transplantation for analysis. An analysis of spleens of mice comparing splenomegaly in vehicle, 15d-PGJ2, or 9,10-dihydro-15d-PGJ2 treated transplanted mice was performed. Spleen weight compared to control (untransplanted mice) after treatment and WBC counts in the peripheral blood of the mice after treatment were examined, and a flow cytometric analysis of the spleen of untransplanted and LSC transplanted mice after treatment was performed. All data were mean±s.e.m. *p<0.05 compared to control or 9,10-dihydro-15d-PGJ2 treated groups. N=5 per group.

[3] = system: p53; assay: p53 expression in FV-LSCs treated ex vivo (RT-PCR, nuclear extracts); type: cell-based, mouse
[4] = system: p53; assay: p53 expression in BCR-ABL+ LSCs treated ex vivo; type: cell-based, mouse
[5] = system: Friend virus (FV)-induced erythroleukemia; assay: FV-induced erythroleukemia in FV-infected mice, intraperitoneal treatment; type: in vivo, mouse
Text: FV-induced erythroleukemia and production of FV leukemia stem cells (FV-LSCs): BALB/c mice were infected with FV as previously described (Subramanian A et al., J Virol. 2008; 82:382-393; Harandi O F et al., J Clin Invest. 2010; 120:4507-4519). On day 14 after infection, spleens were isolated and a single cell suspension of spleen cells was generated. The cells were filtered through a 70 μm sterile filter and flow-through cells were resuspended in RBC lysis buffer followed by centrifugation. Leukemia stem cells were isolated by FACS. Spleen cells were labeled with anti-Kit, Sca1 (BioLegend, San Diego, Calif.) and M34 antibodies. M34 is a monoclonal antibody that recognizes the envelope protein of SFFV (Chesebro B et al., Virology. 1981; 112:131-144) and was used as previously described (Subramanian A et al., J Virol. 2008; 82:382-393). As indicated M34^+Kit^+Sca1^+ cells were cultured in Methocult media (Stem Cell Technologies Vancouver BC) M3334 supplemented with 200 ng/ml Sonic Hedgehog (Shh), 15 ng/ml bone morphogenetic protein-4 (BMP4) (both from R&D Systems Minneapolis, Minn.), and 50 ng/ml stem cell factor (SCF; Peprotech). For CFU-FV assays, cells were plated in methylcellulose media containing fetal calf serum, but lacking added growth factors as previously described (Mager D L et al., Proc Natl Acad Sci USA. 1981; 78:1703-1707).
Complete blood counts of mice treated with Δ^12-PGJ3 (0.05 mg/kg) were examined. There is no difference in treated mice and untransplanted control mice in terms of white blood cell counts, red blood cell counts or platelet counts. Changes in hematological parameters in FV-infected mice upon treatment with CyPGs were examined. FV-infected Balb/c mice were treated with Δ^12-PGJ3 (0.05 mg/kg) intraperitoneally for 7 d following which the mice were sacrificed and hematological parameters were analyzed on an Advia blood analyzer. FV-infected Δ^12-PGJ3 treated mice were compared to infected vehicle controls. N=5 per group, all data are means±s.e.m. *P<0.05. 3% w/v hydroxypropyl-3-cyclodextrin was used as a vehicle in in vivo experiments. Spleen sizes of FV-infected mice that were treated with either vehicle, 9,10-dihydro-15d-PGJ2 (0.05 mg/kg), or 15d-PGJ2 (0.05 mg/kg) were examined; N=3 pre group. Hematological parameters of Balb/c uninfected, infected, and 15d-PGJ2 treated mice were examined. N=5 per group. All data were means±s.e.m. *P<0.05.
FV-LSC were targeted by 15d-PGJ2 in the spleen of FV-infected mice. FV-infected mice were treated with 15d-PGJ2 or 9,10-dihydro-15d-PGJ2 at 0.05 mg/kg for 7 d. The splenic LSC (M34^+Sca1^+Kit^+) cells were analyzed by flow cytometry on day 14 post infection. […] Uninfected and infected vehicle controls were used for comparison. N=3; *P<0.05. […] The colonies were counted 10-14 days after plating. N=3 mice per group, *p<0.05.

[6] = system: FV-LSCs (M34^+Kit^+Sca1^+); assay: Apoptosis of FV-LSCs treated ex vivo (annexin V, flow cytometry); type: cell-based, mouse; conditions: 25 nM, 36 h, annexin V
Protocol: On day 14 after infection, spleens were isolated and a single cell suspension of spleen cells was generated. The cells were filtered through a 70 μm sterile filter and flow-through cells were resuspended in RBC lysis buffer followed by centrifugation. Leukemia stem cells were isolated by FACS. Spleen cells were labeled with anti-Kit, Sca1 (BioLegend, San Diego, Calif.) and M34 antibodies. […] As indicated M34^+Kit^+Sca1^+ cells were cultured in Methocult media (Stem Cell Technologies Vancouver BC) M3334 supplemented with 200 ng/ml Sonic Hedgehog (Shh), 15 ng/ml bone morphogenetic protein-4 (BMP4) (both from R&D Systems Minneapolis, Minn.), and 50 ng/ml stem cell factor (SCF; Peprotech).
The cells were stained with annexin V-FITC and analyzed by flow cytometry. […] Means±s.e.m. *P<0.001 compared to vehicle (PBS). […] Inset: Effect of rosiglitazone on the apoptosis of LSC. Rosiglitazone (0.1-2.0 μM) was incubated with LSC in the culture media for 36 h as described earlier and the cells were subjected to annexin-V staining followed by flow cytometry. […] LSC were treated ex vivo with indicated concentrations of each compound for 36 h. Mean±s.e.m. shown *P<0.001.

[7] = system: primary human AML cells; LSCs (CD34+CD38−CD123+); assay: Apoptosis of primary human AML cells and AML LSCs (annexin V); type: cell-based; conditions: CAY10471 10 nM pretreatment, then Δ^12-PGJ3 100 nM
Protocol: In this experiment, 110,000/well primary AML cells were cultured in above specified media for 6 and 12 hrs. Cells were collected and washed once with ice cold PBS. The cells were resuspended in 200 ul 1× Apoptosis buffer with annexin-V PE to all tubes. The cells were washed in PBS and resuspended in 600 ul PBS and transfer into flow tubes and analyzed for apoptosis (Annexin V+ cells) on FC-500. […] In this experiment, 110,000/well AML cells were cultured in earlier mentioned media for 6 and 12 hrs. Cells were collected and washed once in PBS and resuspended in 200 ul PBS and blocked with FC receptor antibody 10 mins RT. The following antibodies were added: CD38, CD123, CD34, CD117 (BD bioscience) for 1 hr on ice. Cells were washed in PBS once and resuspended in 200 ul of apoptotic buffer, and annexin V was added and incubated for 15 mins. Apoptotic cells (Annexin V+ cells) were counted by flow cytometry. […] Cells were collected and washed once in PBS and resuspended in 200 ul PBS and blocked with FC receptor antibody 10 mins RT. The following antibodies were added: CD38, CD123, CD34 (BD bioscience) for 1 hr on ice. Cells were washed in PBS once and resuspended in 200 ul of apoptotic buffer, and annexin V was added and incubated for 15 mins. Apoptotic cells (Annexin V+ cells) were counted by flow cytometry.
Referring to the results shown in FIG. 16, these experiments were performed with primary AML stem cells isolated from a patient. […] In an identical experiment, the cells were also treated with a synthetic DP agonist, ZK118182 (100 nM). Apoptosis of cells (by annexin V staining) was measured using flow cytometry.

[8] = system: normal HSCs (MSCV-GFP^+HSC); assay: Effect on normal HSCs (MSCV-GFP+ HSC) treated ex vivo; conditions: antagonists/inhibitor 10 nM; Δ^12-PGJ3 25 nM; 36 h
[9] = system: Human unfractionated bone marrow cells; assay: Colony formation of normal human bone marrow cells in methylcellulose; conditions: methylcellulose with multiple growth factors, 12 days
Protocol: Human unfractionated bone marrow cells (5×10^5 per well) were plated in methylcellulose complete media containing IL-3, GM-CSF, G-CSF, SCF and Epo supplemented with the indicated concentrations of drugs. Total colonies were counted after 12 days.

[10] = system: rat basophilic cell line (RBL-23); assay: Degranulation of basophilic cells (histamine and hexoseaminidase release); conditions: Δ^12-PGJ3 100 nM
Protocol: as §1

`CCCCC/C=C\C=C1\C(=O)CC[C@@H]1C/C=C\CCCC(=O)O` [9,10-dihydro-15d-PGJ2] was tested, and the “apoptosis of Sca1+GFP+Kit+ BCR-ABL+LSC from spleen” value ([1]; 25-1000 nM, 36 h) was “had no effect; also recorded: ineffective even at high concentrations up to 1 μM”, the “hematocrit, WBC counts and reticulocyte counts” value ([2]; FV-induced leukemia, FIG. 3C) was “had no effect on any parameter tested” and the “LSCs (M34+Sca1+Kit+) in the spleen” value ([2]; flow cytometry after 1 week i.p. treatment) was “did not have any effect on their viability”. For the same compound, the splenomegaly ([2]; Δ^12-PGJ3 0.025 and 0.05 mg/kg, comparators 0.05 mg/kg, i.p. 1 week) was “nor alleviated splenomegaly”, the “p53 expression at transcript level” value ([3]; 10 or 25 nM, 12 h) was “ineffective” and the “p53 mRNA” value ([4]; 25 nM ex vivo) was “ineffective”. The “LSCs (Sca1+Kit+M34+) in the spleen” value ([5]; 0.05 mg/kg i.p. 7 d, flow cytometry day 14 post infection) was “ineffective”, the “splenomegaly, comparator CyPGs” value ([5]; i.p. 7 days) was “did not have any effect on the amelioration of splenomegaly” and the “apoptosis of FV-LSCs” value [6] was “fail to induce apoptosis; also recorded: no apoptosis”.
With `CN(C1CCc2c(c3ccccc3n2CC(=O)O)C1)S(=O)(=O)c1ccc(F)cc1` (stereo not shown) [CAY10471, reference compound] the “inhibition of Δ^12-PGJ3-induced apoptosis by DP antagonist” value ([1]; antagonist 10 nM, 2 h pretreatment, then 25 nM Δ^12-PGJ3, 36 h) was “inhibited”, the “block of Δ^12-PGJ3-induced apoptosis of LSCs” value [7] was “completely blocked the apoptosis” and the “viability of MSCV-HSC control cells” value [8] was “not affected”.
For `O=c1cc(-c2cccc3c2Sc2ccccc2S3)oc(N2CCOCC2)c1` [MTPO, 2-Morpholin-4-yl-6-thianthren-1-yl-pyran-4-one], the “block of Δ^12-PGJ3-induced apoptosis by ATM inhibitor” value ([1]; pretreatment, then 25 nM Δ^12-PGJ3) was “blocked the effect of Δ^12-PGJ3 on apoptosis”, the “block of Δ^12-PGJ3-dependent p53 expression by ATM inhibitors” value ([3]; preincubation, then Δ^12-PGJ3) was “blocked the CyPG-dependent expression of p53” and the “viability of MSCV-HSC control cells” value [8] was “not affected”. For the same compound, the “block of Δ^12-PGJ3-induced p53 expression by ATM inhibitor” value ([4]; pretreatment) was “blocked”.
With `CC(C)OC(=O)COCC=CCC1C(Cl)CC(O)C1C=CC(O)C1CCCCC1` (stereo not drawn) [ZK118182, [[4-[5R-chloro-2Z-[3R-cyclohexyl-3 S-hydroxy-1R-propenyl]-3 S-hydroxycyclopentyl]-2R-butenyl]oxy]-acetic acid, isopropyl ester] the “apoptosis of BCR-ABL+ LSCs by synthetic DP agonists (GFP+ cells)” value ([1]; 25 nM PGD2Me or 100 nM ZK118182, 24 h) was “can induce apoptosis of LSCs” and the “total colonies of human bone marrow cells” value [9] was “had no effect”.
`C[C@H](CCC(=O)O)C[C@H](C)C[C@H](C)C(=O)/C=C(\O)[C@H](C)C[C@H](C)C/C=C/[C@@H](C)[C@@H](O)[C@@H](C)[C@@H](O)C[C@@H]1CC[C@@](C)([C@H]2CC[C@@](C)([C@@H](C)O)O2)O1` [ionomycin] was tested, and the “degranulation (release of histamine and hexoseaminidase)” value [10] was “caused extensive production of histamine and hexoseaminidase”.
